Measured values from patent US10328052B2, “D-proline derivatives as SAP depleting agent” (GlaxoSmithKline Intellectual Property Development Limited, priority 2015, dated 2019).
Read-outs that look alike come from different tables or passages of the source.

Legend:
circulating SAP = molecular target: T1, circulating SAP (Homo sapiens, UniProt P02743); details: systemic amyloidosis patients, for as long as the drug was administered; cited from earlier work
T1 construct: host or cells: patients' plasma (in vivo)
T1 sequence (P02743 20-223): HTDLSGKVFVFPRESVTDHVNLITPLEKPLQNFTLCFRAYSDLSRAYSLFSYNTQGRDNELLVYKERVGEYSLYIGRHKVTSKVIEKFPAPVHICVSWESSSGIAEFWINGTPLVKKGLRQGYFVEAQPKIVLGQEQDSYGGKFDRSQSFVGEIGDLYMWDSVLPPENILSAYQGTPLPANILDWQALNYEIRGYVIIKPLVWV

SAP = molecular target: T2, SAP (Homo sapiens, UniProt P02743); details: cited from earlier work
T2 construct: reduces the CSF SAP concentration from 2-30 μg/L to <0.1 μg/L in patients with Alzheimer's disease; host or cells: patients' plasma and cerebrospinal fluid (in vivo)
T2 sequence (P02743 20-223): as above

[1] = very low and variable; cited from earlier work
CYP2D6 = molecular target: T3, CYP2D6 (Homo sapiens, UniProt P10635); test: Cytochrome p450 inhibition, bactosomes, fluorogenic substrate MMC; format: in vitro ADME
T3 construct: purchased Cypex; host or cells: bactosomes (bacterial membranes)
T3 sequence (P10635 whole entry): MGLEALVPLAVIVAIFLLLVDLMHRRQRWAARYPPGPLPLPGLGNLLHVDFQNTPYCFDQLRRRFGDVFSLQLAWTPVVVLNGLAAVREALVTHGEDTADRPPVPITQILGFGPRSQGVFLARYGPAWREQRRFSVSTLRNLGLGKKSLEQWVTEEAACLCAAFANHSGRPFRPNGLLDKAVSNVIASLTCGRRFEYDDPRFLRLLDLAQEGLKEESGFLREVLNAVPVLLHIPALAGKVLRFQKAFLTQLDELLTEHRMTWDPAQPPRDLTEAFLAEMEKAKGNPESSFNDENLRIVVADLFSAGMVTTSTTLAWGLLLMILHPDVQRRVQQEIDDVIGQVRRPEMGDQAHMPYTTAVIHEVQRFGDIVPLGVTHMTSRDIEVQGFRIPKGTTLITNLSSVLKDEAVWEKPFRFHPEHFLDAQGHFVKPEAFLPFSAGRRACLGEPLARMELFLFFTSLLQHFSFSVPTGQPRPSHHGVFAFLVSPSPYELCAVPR
Description: (§1) The assay was designed to evaluate inhibition on cytochrome P450 (CYP) 3A4, 2C9, 2C19, 1A2 and 2D6 enzymes from bactosomes source using fluorogenic substrates. Compound (compound of Formula (I) or Comparator Compound) was dissolved in methanol at 1.65 mM. Daughter solutions were prepared in methanol at 660, 264, 106, 42, 17, 6.8, 2.7, 1.1 and 0.43 μM. NADPH cofactor was prepared with Glucose-6-phosphate (7.8 mg), Glucose-6-phosphate dehydrogenase (6 units), NADP (1.7 mg) per 1 mL in NaHCO3 2%. […]

CYP1A2 = molecular target: T4, CYP1A2 (Homo sapiens, UniProt P05177); test: Cytochrome p450 inhibition, bactosomes, fluorogenic substrate ER; format: in vitro ADME
T4 construct: purchased Cypex; host or cells: bactosomes (bacterial membranes)
T4 sequence (P05177 1-516): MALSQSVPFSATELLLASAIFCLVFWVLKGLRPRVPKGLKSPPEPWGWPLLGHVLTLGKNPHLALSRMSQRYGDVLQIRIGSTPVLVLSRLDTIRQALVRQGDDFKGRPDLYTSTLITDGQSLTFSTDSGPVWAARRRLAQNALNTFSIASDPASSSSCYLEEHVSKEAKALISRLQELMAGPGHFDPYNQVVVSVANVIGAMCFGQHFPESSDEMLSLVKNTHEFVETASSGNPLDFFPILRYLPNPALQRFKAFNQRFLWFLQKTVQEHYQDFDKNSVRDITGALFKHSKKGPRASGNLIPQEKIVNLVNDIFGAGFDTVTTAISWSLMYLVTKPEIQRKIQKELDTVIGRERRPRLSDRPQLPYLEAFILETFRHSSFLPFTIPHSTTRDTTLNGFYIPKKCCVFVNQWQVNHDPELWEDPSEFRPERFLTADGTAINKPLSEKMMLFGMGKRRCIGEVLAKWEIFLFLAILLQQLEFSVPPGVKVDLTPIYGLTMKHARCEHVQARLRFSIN
Description: as §1

CYP2C19 = molecular target: T5, CYP2C19 (Homo sapiens, UniProt P33261); test: Cytochrome p450 inhibition, bactosomes, fluorogenic substrate BMC; format: in vitro ADME
T5 construct: purchased Cypex; host or cells: bactosomes (bacterial membranes)
T5 sequence (P33261 whole entry): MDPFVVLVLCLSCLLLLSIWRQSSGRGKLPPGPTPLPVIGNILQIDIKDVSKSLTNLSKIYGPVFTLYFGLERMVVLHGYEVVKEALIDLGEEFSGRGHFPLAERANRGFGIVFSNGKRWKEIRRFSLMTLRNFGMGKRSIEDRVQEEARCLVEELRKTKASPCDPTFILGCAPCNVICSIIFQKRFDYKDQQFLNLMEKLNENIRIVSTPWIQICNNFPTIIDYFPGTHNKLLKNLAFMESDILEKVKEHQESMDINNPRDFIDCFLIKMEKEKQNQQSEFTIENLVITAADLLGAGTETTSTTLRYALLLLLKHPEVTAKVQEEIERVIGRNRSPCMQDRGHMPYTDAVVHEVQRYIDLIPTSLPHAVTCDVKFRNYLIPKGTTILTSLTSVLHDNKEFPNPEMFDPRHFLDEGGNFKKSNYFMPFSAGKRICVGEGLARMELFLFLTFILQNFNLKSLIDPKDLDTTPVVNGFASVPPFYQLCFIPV
Description: as §1

CYP2C9 = molecular target: T6, CYP2C9 (Homo sapiens, UniProt P11712); test: Cytochrome p450 inhibition, bactosomes, fluorogenic substrate FCA; format: in vitro ADME
T6 construct: purchased Cypex; host or cells: bactosomes (bacterial membranes)
T6 sequence (P11712 whole entry): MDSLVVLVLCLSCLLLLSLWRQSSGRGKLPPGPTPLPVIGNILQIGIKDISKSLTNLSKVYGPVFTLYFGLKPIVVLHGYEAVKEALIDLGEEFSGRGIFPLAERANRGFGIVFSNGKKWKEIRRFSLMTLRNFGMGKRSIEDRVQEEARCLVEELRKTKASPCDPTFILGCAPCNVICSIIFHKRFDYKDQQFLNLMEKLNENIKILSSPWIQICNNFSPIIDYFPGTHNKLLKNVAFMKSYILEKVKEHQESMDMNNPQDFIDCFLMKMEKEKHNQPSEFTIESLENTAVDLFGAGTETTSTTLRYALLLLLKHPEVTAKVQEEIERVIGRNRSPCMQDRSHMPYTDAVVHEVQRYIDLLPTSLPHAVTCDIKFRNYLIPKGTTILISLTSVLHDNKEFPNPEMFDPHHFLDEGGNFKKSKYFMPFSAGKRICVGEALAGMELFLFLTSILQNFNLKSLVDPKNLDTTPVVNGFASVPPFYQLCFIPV
Description: as §1

CYP3A4 = molecular target: T7, CYP3A4 (Homo sapiens, UniProt P08684); test: Cytochrome p450 inhibition, bactosomes, fluorogenic substrates 7BQ and DEF; format: in vitro ADME; details: for IC50: bactosomes
T7 construct: purchased Cypex; host or cells: bactosomes (bacterial membranes)
T7 sequence (P08684 whole entry): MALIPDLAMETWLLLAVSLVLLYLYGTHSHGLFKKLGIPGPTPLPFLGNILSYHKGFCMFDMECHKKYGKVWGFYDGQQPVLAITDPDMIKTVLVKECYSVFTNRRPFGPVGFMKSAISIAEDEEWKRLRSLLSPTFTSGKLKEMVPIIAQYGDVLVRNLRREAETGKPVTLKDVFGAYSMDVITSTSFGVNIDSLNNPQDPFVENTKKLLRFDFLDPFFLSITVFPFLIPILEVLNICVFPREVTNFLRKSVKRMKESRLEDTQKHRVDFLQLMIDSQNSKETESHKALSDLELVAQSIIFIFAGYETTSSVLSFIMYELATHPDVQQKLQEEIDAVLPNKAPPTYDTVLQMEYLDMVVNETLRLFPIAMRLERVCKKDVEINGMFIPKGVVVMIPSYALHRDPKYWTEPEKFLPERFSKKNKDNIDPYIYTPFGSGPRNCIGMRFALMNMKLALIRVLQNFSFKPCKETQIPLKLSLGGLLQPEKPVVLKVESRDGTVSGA
Description: The assay was designed to evaluate inhibition on cytochrome P450 (CYP) 3A4, 2C9, 2C19, 1A2 and 2D6 enzymes from bactosomes source using fluorogenic substrates. Compound (compound of Formula (I) or Comparator Compound) was dissolved in methanol at 1.65 mM. Daughter solutions were prepared in methanol at 660, 264, 106, 42, 17, 6.8, 2.7, 1.1 and 0.43 μM. NADPH cofactor was prepared with Glucose-6-phosphate (7.8 mg), Glucose-6-phosphate dehydrogenase (6 units), NADP (1.7 mg) per 1 mL in NaHCO3 2%. Substrate Preparation was as Follows: • 7-Methoxy-4-triFluoromethyl Coumarin-3-Acetic acid ethyl ester (FCA): 12.5 mM in acetonitrile • EthoxyResorufin (ER): 0.05 mM in acetonitrile • 4-MethylaminoMethyl-7-Methoxy Coumarin (MMC): 2.5 mM in methanol • 3-Butyryl-7Methoxy Coumarin (BMC): 2.5 mM in DMSO • 7-BenzyloxyQuinoline (7BQ): 2.5 mM in acetonitrile • DiEthoxyFluorescein (DEF): 0.1 mM in acetonitrile Bactosomes (Cypex source) at the concentration of 10 mg of protein per mL were diluted in phosphate buffer 50 mM pH7.4: • 0.33 mL of bactosomes CYP2C9 with 23.8 mL of buffer and 0.11 mL of FCA • 0.33 mL of bactosomes CYP1A2 with 23.6 mL of buffer and 0.275 mL of ER • 0.33 mL of bactosomes CYP2D6 with 23.8 mL of buffer and 0.11 mL of MMC • 0.33 mL of bactosomes CYP2C19 with 23.8 mL of buffer and 0.11 mL of BMC • 0.33 mL of bactosomes CYP3[…] with 23.6 mL of buffer and 0.275 mL of 7BQ • 0.33 mL of bactosomes CYP3[…] with 23.6 mL of buffer and 0.275 mL of DEF Pre-Incubation consisted in mixing 5 μL of compound solution with 220 μL diluted bactosomes and warming it at 37° C. for 10 min. Incubation was started with the addition of 25 μL of NADPH. Then fluorescence of substrate metabolite was read in a SAFIRE instrument (from Tecan) for 5 min: • FCA (2C9): Excitation at 410 nm and Emission at 510 nm • ER (1A2): Excitation at 530 nm and Emission at 590 nm • MMC (2D6): Excitation at 410 nm and Emission at 485 nm • BMC (2C19): Excitation at 410 nm and Emission at 465 nm • 7BQ (3A4H): Excitation at 410 nm and Emission at 530 nm • DEF (3A4L): Excitation at 485 nm and Emission at 530 nm Plotting of inhibition of substrate production against compound concentration allowed the determination of IC50 values.

[2] = Physical stability (hydrolysis) in phosphate buffer at various pHs; format: physicochemical
Description: The assay was designed for determining physical stability of compound in buffer at various pHs. Compound of Formula (I) was dissolved in DMSO at 1 mg/mL. Phosphate buffer (PBS) was prepared by mixing K2HPO4 50 mM and KH2PO4 50 mM solutions to obtain 4 buffers at pH 6.0, 7.0, 7.5, 8.0.
Stability studies were conducted at room temperature, and were started by the addition of 8 μL of DMSO solution to 792 μL of PBS 50 mM at pH 6.0, 7.0, 7.5 or 8.0 (1% DMSO). 75 μl of mixture was taken at 0, 1, 2, 4 and 24 h and 225 μL acetonitrile containing internal standard was added.
2 μL of samples were injected into the liquid chromatography system and eluted with a Ascentis C18 column (50×2.1 mm id, 2.7 μm) and with 0.1% formic acid in water (A) and 0.1% formic acid in acetonitrile (B), using the following elution 2 min gradient: 5 to 95% B over 1.2 min, 95% B over 0.6 min and 0.1 min for re-equilibrate column, at 0.5 mL/min at 50° C.
Samples were analysed by Mass Spectrometry with an electrospray source and in positive mode and with following mass transitions: • Compound of Formula (I): 625 to 368 • Monoester of CPHPC: 483 to 226 • CPHPC: 341 to 226

[3] = Solubility in aqueous media; format: physicochemical; details: thermodynamic from solid, 4 hour timepoint, read-out: Solubility (mg/mL) at 4 hour timepoint
Description: A known quantity of the compound of Formula (I) was weighed into a suitable vessel (e.g. a screw capped clear glass vial) and a known volume of the required media added (e.g. Simulated Gastric Fluid pH 1.6 [SGF], Simulated Fed State Intestinal Fluid pH 6.5 [FeSSIF], Simulated Fasted State Intestinal Fluid pH 6.5 [FaSSIF], Water [Purified Water], or Britton-Robinson buffer). The compound was wetted with the media by vortex mixing for 30 seconds to 1 minute. The sample was then visually observed to ensure that undissolved solid remained present. The sample was transferred to a gentle mixer (such as a roller mixer) and allowed to agitate until the desired time point was reached. At appropriate times the sample was reassessed visually. If all the solid had dissolved the solubility was recorded as >x mg/mL where x is the known weight used divided by the volume added. If undissolved solid remained a portion of the sample was taken and centrifuged to remove the solid leaving a clear supernatant. The supernatant was diluted volumetrically with a suitable diluent to provide an analytical sample of suitable concentration for analysis. This diluted sample was then analysed by a suitable method such as HPLC against a standard(s) of known concentration. The solubility of the compound can then be calculated using a knowledge of the concentration of the standard, the relative response (e.g. peak areas) of the standard and the analytical sample described, and the dilution of the analytical sample.

[4] = Intestinal microsomal stability; format: in vitro ADME; details: up to 30 minutes, 37° C.
Description: The assay was designed for determining stability of compound in microsomal matrix. Compound (Compound of Formula (I)) was dissolved in DMSO at 1 mg/mL. Daughter solution was prepared in methanol/water (50/50) at 30.3 ng/mL. Microsomes (from Xenotech) were diluted at 0.625 mg proteins per mL in phosphate buffer 50 mM pH 7.4.
Pre-Incubation consisted of warming microsomal solution 395 μL with 100 μL NaHCO3 (2%) at 37° C. for 7 min. Incubation was started with the addition of 5 μL of daughter solution. 50 μL aliquots of mixture were taken at 0, 3, 6, 12 and 30 min and quenched with 150 μL acetonitrile containing internal standard.
After 10 min centrifugation at 4000 rpm, 2 μL of samples were injected into the liquid chromatography system and eluted on a Ascentis C18 column (50×2.1 mm id, 2.7 μm) with 0.1% formic acid in water (A) and 0.1% formic acid in acetonitrile (B), using the following 2 minute elution gradient: 5 to 95% B over 1.2 min, 95% B over 0.6 min and 0.1 min for re-equilibrate column, at 0.5 mL/min at 50° C.
Samples were analysed by Mass Spectrometry with an electrospray source, in positive mode and with following mass transitions: • Compound of Formula (I): 625 to 368 • Monoester of CPHPC: 483 to 226 • CPHPC: 341 to 226
Controls were made to calculate percentage of disappearance of parent but also appearance of suspected metabolite, i.e. monoester and diacidic form.

[5] = substrate DEF, read-out: IC50 CYP3A4 (DEF)

O=C(O)[C@H]1CCCN1C(=O)CCCCC(=O)N1CCC[C@@H]1C(=O)O [CPHPC, (R)-1-[6-[(R)-2-carboxy-pyrrolidin-1-yl]-6-oxo-hexanoyl]pyrrolidine-2-carboxylic acid]
depletion of circulating SAP (in words) (circulating SAP): almost complete depletion | CSF SAP concentration after depletion by CPHPC (SAP; CSF, patients with Alzheimer's disease, from 2-30 μg/L): < 0.1 µg/L | plasma SAP after depletion by CPHPC (SAP; plasma, from the normal 20-50 mg/L): < 0.1 mg/L | oral bioavailability [1]: 3-5%

O=C(OCOC(=O)[C@H]1CCCN1C(=O)CCCCC(=O)N1CCC[C@@H]1C(=O)O)C1CCOCC1 [mono-ester derivative, (R)-1-(6-oxo-6-((R)-2-((((tetrahydro-2H-pyran-4-carbonyl)oxy)methoxy)carbonyl)pyrrolidin-1-yl)hexanoyl)pyrrolidine-2-carboxylic acid]
IC50 (CYP2D6): > 33 µM | IC50 (CYP1A2): > 33 µM | IC50 (CYP2C19): > 33 µM | IC50 (CYP2C9): > 33 µM | IC50 (CYP3A4; [5]): > 33 µM

CC(OC(=O)[C@H]1CCCN1C(=O)CCCCC(=O)N1CCC[C@@H]1C(=O)OC(C)OC(=O)C(C)(C)C)OC(=O)C(C)(C)C (stereo partly drawn) [Comparator Compound, (2R,2′R)-bis(1-(pivaloyloxy)ethyl) 1,1′-adipoylbis(pyrrolidine-2-carboxylate), reference compound]
inhibition of CYP3A4-7BQ (in words) (CYP3A4; substrate 7BQ): significant inhibition | inhibition of CYP3A4-DEF (in words) (CYP3A4; substrate DEF): significant inhibition

O=C(OCOC(=O)[C@H]1CCCN1C(=O)CCCCC(=O)N1CCC[C@@H]1C(=O)OCOC(=O)C1CCOCC1)C1CCOCC1 [Compound of Formula (I), (2R,2′R)-bis(((tetrahydro-2H-pyran-4-carbonyl)oxy)methyl) 1,1′-adipoylbis(pyrrolidine-2-carboxylate)]
sensitivity to hydrolysis at different pH (in words) ([2]; PBS pH6 to pH8, room temperature): less sensitive to hydrolysis for a pH below 7.5 | compound hydrolysed after 24 h ([2]; acidic environment (pH less than 7.0), PBS, room temperature, 24 h): Less than 20% | solubility at 4 h ([3]; FaSSIF (Simulated Fasted State Intestinal Fluid pH 6.5)): 1.04 mg/mL | solubility at 4 h ([3]; FeSSIF (Simulated Fed State Intestinal Fluid pH 6.5)): 0.599 mg/mL | solubility at 4 h ([3]; SGF (Simulated Gastric Fluid pH 1.6)): 0.577 mg/mL | solubility at 4 h ([3]; water (purified water), Water): 0.574 mg/mL | IC50 (CYP2D6): > 33 µM | IC50 (CYP1A2): > 33 µM | IC50 (CYP2C19): > 33 µM | IC50 (CYP2C9): > 33 µM | rate of hydrolysis in human intestinal microsomes (in words) [4]: low rate of hydrolysis | IC50 (CYP3A4; substrate 7BQ, read-out: IC50 CYP3A4 (7BQ)): > 33 µM | IC50 (CYP3A4; [5]): > 33 µM
